In PMC4258814, “Differences between murine arylamine N-acetyltransferase type 1 and human arylamine N-acetyltransferase type 2 defined by substrate specificity and inhibitor binding” (BMC Pharmacology & Toxicology, 2014):
Residue numbers refer to the chain shown, from its start.

Assays:
[1] = test system: (MESAU)NAT2*1; design: method as in PMID 15627487, PMID 18280460; settings: substrate 500 μM, relative to substrate with highest specific activity (100%), mean of 3 ± SD, ref [8], [22]; cited from earlier work
[2] = molecular target: T1, (MOUSE)NAT2*1 (Mus musculus, UniProt P50295); assay: Substrate specific N-acetylation profile; format: biochemical; settings: for % specific activity values: substrate 500 μM, relative to substrate with highest specific activity (100%), mean of 3 ± SD
T1 construct: made in house
T1 sequence (P50295 1-290): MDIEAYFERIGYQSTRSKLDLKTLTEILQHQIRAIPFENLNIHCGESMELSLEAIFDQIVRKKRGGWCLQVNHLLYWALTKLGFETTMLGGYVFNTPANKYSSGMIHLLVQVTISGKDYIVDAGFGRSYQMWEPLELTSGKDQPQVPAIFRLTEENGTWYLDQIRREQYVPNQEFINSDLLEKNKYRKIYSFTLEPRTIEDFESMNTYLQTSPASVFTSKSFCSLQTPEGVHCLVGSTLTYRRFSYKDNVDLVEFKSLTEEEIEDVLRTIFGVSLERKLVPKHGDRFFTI

[3] = molecular target: T2, (MOUSE)NAT2_R127G (Mus musculus, UniProt P50295, R127G); assay: Substrate specific N-acetylation profile; format: biochemical; settings: (MOUSE)NAT2 R127G; substrate 500 μM; relative to substrate with highest specific activity (100%); mean of 3 ± SD
T2 construct: made in house
T2 sequence (P50295 1-290 R127G): T1 sequence (P50295 1-290) with R127G

[4] = molecular target: T3, (MOUSE)NAT1*1 (Mus musculus, UniProt P50294); assay: Substrate specific N-acetylation profile; format: biochemical; settings: substrate 500 μM, relative to substrate with highest specific activity (100%), mean of 3 ± SD
T3 construct: The open reading frame of (MOUSE)Nat1*1 [32] was subcloned; hexa-His (N, cleaved yes); made in house; host or cells: Escherichia coli BL21(DE3)CodonPlus-RIL
T3 sequence (P50294 1-290): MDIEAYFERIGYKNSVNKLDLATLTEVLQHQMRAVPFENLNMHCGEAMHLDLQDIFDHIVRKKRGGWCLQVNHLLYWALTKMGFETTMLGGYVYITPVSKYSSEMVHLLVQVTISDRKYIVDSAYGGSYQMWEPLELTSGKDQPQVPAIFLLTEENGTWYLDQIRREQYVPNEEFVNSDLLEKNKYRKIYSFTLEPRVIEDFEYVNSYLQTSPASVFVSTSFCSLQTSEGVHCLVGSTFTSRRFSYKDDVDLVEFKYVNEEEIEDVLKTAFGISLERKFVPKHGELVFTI

[5] = test system: (HUMAN)NAT1*4; design: method as in PMID 15627487, PMID 18280460; settings: substrate 500 μM, relative to substrate with highest specific activity (100%), mean of 3 ± SD, ref [8], [22]; cited from earlier work
[6] = ref [56]–[61], cited from earlier work; for pKaH of acetyl acceptor amine: as summarised in text from Table S1
[7] = molecular target: T4, (HUMAN)NAT2*4 (Homo sapiens, UniProt P11245); design: method as in PMID 15627487, PMID 18280460; settings: substrate 500 μM, relative to substrate with highest specific activity (100%), mean of 3 ± SD, ref [8], [22]; cited from earlier work
T4 construct: made in house
T4 sequence (P11245 1-290): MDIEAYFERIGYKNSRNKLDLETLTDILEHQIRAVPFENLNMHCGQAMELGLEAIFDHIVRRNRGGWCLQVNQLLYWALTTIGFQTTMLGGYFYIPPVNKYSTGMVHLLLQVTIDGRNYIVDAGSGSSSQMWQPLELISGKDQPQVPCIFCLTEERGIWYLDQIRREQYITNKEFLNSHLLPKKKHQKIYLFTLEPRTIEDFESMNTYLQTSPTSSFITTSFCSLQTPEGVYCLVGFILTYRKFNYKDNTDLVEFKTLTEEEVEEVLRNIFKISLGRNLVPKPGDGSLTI

[8] = molecular target: T5, (MOUSE)NAT2_F125S (Mus musculus, UniProt P50295, F125S); assay: Substrate specific N-acetylation profile; format: biochemical; settings: for % specific activity values: (MOUSE)NAT2 F125S, substrate 500 μM, relative to substrate with highest specific activity (100%), mean of 3 ± SD
T5 construct: His tag (only implied by Ni-NTA purification) (cleaved yes); made in house; host or cells: E. coli Rosetta(DE3)pLysS
T5 sequence (P50295 1-290 F125S): T1 sequence (P50295 1-290) with F125S

[9] = molecular target: T6, (MOUSE)NAT2_R127L (Mus musculus, UniProt P50295, R127L); assay: Substrate specific N-acetylation profile; format: biochemical; settings: (MOUSE)NAT2 R127L; substrate 500 μM; relative to substrate with highest specific activity (100%); mean of 3 ± SD
T6 construct: made in house
T6 sequence (P50295 1-290 R127L): T1 sequence (P50295 1-290) with R127L

Cc1cc(C)nc(NS(=O)(=O)c2ccc(N)cc2)n1 [SMZ, sulfamethazine]
% specific activity values [1]: 1 ± 1%
% specific activity values [2]: 4 ± 1%
% specific activity values [3]: 19 ± 2%
% specific activity values [4]: 88 ± 6%
% specific activity values [5]: 1 ± 1%
pKa(H) (NH3^+) [6]: 2.4
pKa(H) (sulfonamide) [6]: 7.4
% specific activity values [7]: 46 ± 1%
% specific activity values [8]: 1 ± 1%
% specific activity values [9]: 3 ± 1%

COc1ccc(N)cc1 [ANS, 4-methoxyaniline]
% specific activity values [1]: 89 ± 1%
% specific activity values [2]: 88 ± 6%
% specific activity values [3]: 97 ± 4%
% specific activity values [4]: 48 ± 1%
% specific activity values [5]: 56 ± 2%
pKa(H) (NH3^+) [6]: 5.2 (NH3^+)
% specific activity values [7]: 9 ± 2%
% specific activity values [8]: 100 ± 3%
Maximal specific activity ([8]; (MOUSE)NAT2_F125S, best substrate, 500 μM): 25 µM/s/mg
% specific activity values [9]: 77 ± 10%

Nc1ccc(C(=O)O)cc1 [4ABA, 4-aminobenzoic acid]
% specific activity values [1]: 100 ± 6%
Maximal specific activity ([2]; best substrate, 500 μM): 196 µM/s/mg
% specific activity values [2]: 100 ± 2%
% specific activity values [3]: 8 ± 1%
% specific activity values [4]: 48 ± 6%
% specific activity values [5]: 100 ± 2%
pKaH of acetyl acceptor amine [6]: < 3
pKa(H) (COOH) [6]: 4.9
pKa(H) (NH3^+) [6]: 2.4
% specific activity values [7]: 6 ± 1%
% specific activity values [8]: 70 ± 2%
% specific activity values [9]: 8 ± 1%

Nc1ccc(Br)cc1 [4BA, 4-bromoaniline]
% specific activity values [1]: 72 ± 1%
% specific activity values [2]: 52 ± 2%
% specific activity values [3]: 70 ± 1%
% specific activity values [4]: 28 ± 6%
% specific activity values [5]: 50 ± 1%
pKa(H) (NH3^+) [6]: 3.4 (NH3^+)
% specific activity values [7]: 72 ± 1%
% specific activity values [8]: 47 ± 2%
% specific activity values [9]: 81 ± 11%

NNc1nncc2ccccc12 [HDZ, hydralazine]
% specific activity values [1]: 3 ± 1%
% specific activity values [2]: 8 ± 2%
% specific activity values [3]: 100 ± 2%
% specific activity values [4]: 68 ± 6%
% specific activity values [5]: 2 ± 1%
% specific activity values [7]: 100 ± 1%
% specific activity values [8]: 19 ± 1%
% specific activity values [9]: 95 ± 1%

Nc1ccc(C(=O)O)c(O)c1 [4AS, 4-aminosalicylate]
% specific activity values [1]: 74 ± 3%
% specific activity values [2]: 55 ± 1%
% specific activity values [3]: 27 ± 1%
% specific activity values [4]: 88 ± 6%
% specific activity values [5]: 67 ± 2%
pKaH of acetyl acceptor amine [6]: < 3
pKa(H) (COOH) [6]: 6.0
pKa(H) (NH3^+) [6]: 2.3
pKa(H) (OH) [6]: 13.2
% specific activity values [7]: 7 ± 1%
% specific activity values [8]: 75 ± 3%
% specific activity values [9]: 13 ± 1%
